Measurements published in US10364263B2, “Cyclic phosphates and cyclic phosphoramidates for the treatment of neurologic disorders” (Retrophin, Inc., priority 2015, dated 2019).

System: PANK2 silenced human neuroblastoma IMR32 cells (PANK2−/−)
Test: Coenzyme A assay in PANK2 silenced cells (LC-MS quantification of free CoA)
Format: cell-based
Conditions: compound added twice (24 h + 24 h), relative to 0.1% DMSO controls
In short: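 Free intracellular CoA was measured by positive-mode LC-MS/MS of 20% TFA extracts, taking 2 μl per 10^6 cells as intracellular volume. Cells were IMR32 with stable lentiviral PANK2 knockdown, dosed twice 24 h apart (48 h total, 0.1% DMSO). Output is fold increase over vehicle.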

Structure (SMILES)	PANK2−/− CoA (Fold Increase): fold increase in Coenzyme A (CoA) levels relative to controls [Fold Increase]
COC(=O)CCNC(=O)[C@@H]1O[P@@](=O)(OCOC(=O)NC(C)(C)COC(=O)[C@@H](NC(=O)OCc2ccccc2)C(C)C)OCC1(C)C [2-172, 2-((((((2S,4R)-4-((3-methoxy-3-oxopropyl)carbamoyl)-5,5-dimethyl-2-oxido-1,3,2-dioxaphosphinan-2-yl)oxy)methoxy)carbonyl)amino)-2-methylpropyl ((benzyloxy)carbonyl)-L-valinate]	1.95
COC(=O)CCNC(=O)[C@@H]1OP(=O)(OCOC(=O)N[C@@H](CSC(=O)C(C)(C)C)C(=O)OCc2ccccc2)OCC1(C)C (stereo partly drawn) [2-174, benzyl N-(((((4R)-4-((3-methoxy-3-oxopropyl)carbamoyl)-5,5-dimethyl-2-oxido-1,3,2-dioxaphosphinan-2-yl)oxy)methoxy)carbonyl)-S-pivaloyl-L-cysteinate]	93.99
COC(=O)CCNC(=O)[C@@H]1O[P@@](=O)(Oc2ccc(C[C@H](N)C(=O)OC)cc2)OCC1(C)C (single isomer, unassigned) [2-162]	9.73
COC(=O)CCNC(=O)[C@@H]1OP(=O)(OCOC(=O)c2cnco2)OCC1(C)C (stereo partly drawn) [Compound No. 87, (((4R)-4-((3-methoxy-3-oxopropyl)carbamoyl)-5,5-dimethyl-2-oxido-1,3,2-dioxaphosphinan-2-yl)oxy)methyl oxazole-5-carboxylate]	58.7
COC(=O)CCNC(=O)[C@@H]1O[P@](=O)(OCOC(=O)c2cc(C)nn2C)OCC1(C)C [2-190, (((2R,4R)-4-((3-methoxy-3-oxopropyl)carbamoyl)-5,5-dimethyl-2-oxido-1,3,2-dioxaphosphinan-2-yl)oxy)methyl 1,3-dimethyl-1H-pyrazole-5-carboxylate]	52.24
COC(=O)CCNC(=O)[C@@H]1O[P@](=O)(OCOC(=O)c2scnc2C)OCC1(C)C (single isomer, unassigned) [2-150]	43.4
COC(=O)CCNC(=O)[C@@H]1O[P@](=O)(Oc2ccccc2C(=O)OC)OCC1(C)C [2-166]	3.61
COC(=O)CCNC(=O)[C@@H]1O[P@@](=O)(Oc2ccc(C[C@H](NC(=O)OC(C)(C)C)C(=O)OC)cc2)OCC1(C)C (single isomer, unassigned) [2-204]	5.75
COC(=O)CCNC(=O)[C@@H]1OP(=O)(OCOC(=O)c2ocnc2C)OCC1(C)C (stereo partly drawn) [2-147, (((4R)-4-((3-methoxy-3-oxopropyl)carbamoyl)-5,5-dimethyl-2-oxido-1,3,2-dioxaphosphinan-2-yl)oxy)methyl 4-methyloxazole-5-carboxylate]	39.19
COC(=O)CCNC(=O)[C@@H]1O[P@](=O)(Oc2ccc(S(F)(F)(F)(F)F)cc2)OCC1(C)C (single isomer, unassigned) [Compound No. 2-125]	34.02
CCCC(=O)OCOP1(=O)OCC(C)(C)[C@H](C(=O)NCCC(=O)OC)O1 (stereo partly drawn) [Compound No. 66, (((4R)-4-((3-methoxy-3-oxopropyl)carbamoyl)-5,5-dimethyl-2-oxido-1,3,2-dioxaphosphinan-2-yl)oxy)methyl butyrate]	83.72
COC(=O)CCNC(=O)[C@@H]1O[P@](=O)(OCOC(=O)N[C@@H](CSC(=O)C(C)(C)C)C(=O)O)OCC1(C)C [2-201, N-(((((2R,4R)-4-((3-methoxy-3-oxopropyl)carbamoyl)-5,5-dimethyl-2-oxido-1,3,2-dioxaphosphinan-2-yl)oxy)methoxy)carbonyl)-S-pivaloyl-L-cysteine]	0.92
COC(=O)CCNC(=O)[C@@H]1OP(=O)(OCOC(=O)[C@H]2COC(=O)N2C(=O)OC(C)(C)C)OCC1(C)C (stereo partly drawn) [2-196, 3-(tert-butyl) 4-((((4R)-4-((3-methoxy-3-oxopropyl)carbamoyl)-5,5-dimethyl-2-oxido-1,3,2-dioxaphosphinan-2-yl)oxy)methyl) (4R)-2-oxooxazolidine-3,4-dicarboxylate]	1.97
CC(C)(C)C(=O)OCOP1(=O)OCC(C)(C)[C@H](C(=O)NCCC(=O)OCc2ccncc2)O1 (stereo partly drawn) [Compound No. 101, (((4R)-5,5-dimethyl-2-oxido-4-((3-oxo-3-(pyridin-4-ylmethoxy)propyl)carbamoyl)-1,3,2-dioxaphosphinan-2-yl)oxy)methyl pivalate]	81.66
COC(=O)CCNC(=O)[C@@H]1O[P@@](=O)(OCOC(=O)c2cc(C)nn2C)OCC1(C)C [2-182, (((2S,4R)-4-((3-methoxy-3-oxopropyl)carbamoyl)-5,5-dimethyl-2-oxido-1,3,2-dioxaphosphinan-2-yl)oxy)methyl 1,3-dimethyl-lH-pyrazole-5-carboxylate]	24.98
COC(=O)CCNC(=O)[C@@H]1O[P@@](=O)(OCOC(=O)N[C@@H](CSC(=O)C(C)(C)C)C(=O)OCC(=O)c2ccccc2)OCC1(C)C [2-199, 2-oxo-2-phenylethyl N-(((((2S,4R)-4-((3-methoxy-3-oxopropyl)carbamoyl)-5,5-dimethyl-2-oxido-1,3,2-dioxaphosphinan-2-yl)oxy)methoxy)carbonyl)-S-pivaloyl-L-cysteinate]	1.98
CO[13C](=O)[13CH2][13CH2][15NH]C(=O)[C@@H]1OP(=O)(Oc2ccccc2)OCC1(C)C (stereo partly drawn) [2-109, methyl 3-((4R)-5,5-dimethyl-2-oxido-2-phenoxy-1,3,2-dioxaphosphinane-4-carboxamido-15N)propanoate-1,2,3-13C3]	2.04
CCOC(=O)[C@H](Cc1ccccc1)NC(=O)OCOP1(=O)OCC(C)(C)[C@H](C(=O)NCCC(=O)OC)O1 (stereo partly drawn) [2-137, ethyl (((((4R)-4-((3-methoxy-3-oxopropyl)carbamoyl)-5,5-dimethyl-2-oxido-1,3,2-dioxaphosphinan-2-yl)oxy)methoxy)carbonyl)-L-phenylalaninate]	1.1
COC(=O)CCNC(=O)[C@@H]1O[P@](=O)(Oc2ccc(C(F)(F)F)cc2)OCC1(C)C [2-197, methyl 3-((2R,4R)-5,5-dimethyl-2-oxido-2-(4-(trifluoromethyl)phenoxy)-1,3,2-dioxaphosphinane-4-carboxamido)propanoate]	101.95
COC(=O)CCNC(=O)[C@@H]1O[P@@](=O)(OC(C)OC(=O)C(C)C)OCC1(C)C (stereo partly drawn) [compound 106, 1-(((2S,4R)-4-((3-methoxy-3-oxopropyl)carbamoyl)-5,5-dimethyl-2-oxido-1,3,2-dioxaphosphinan-2-yl)oxy)ethyl isobutyrate]	2.66
COC(=O)CCNC(=O)[C@@H]1O[P@@](=O)(OCOC(=O)NCCSC(=O)[C@@H](N)C(C)C)OCC1(C)C [2-194, methyl 3-((2S,4R)-2-((((2-((L-valyl)thio)ethyl)carbamoyl)oxy)methoxy)-5,5-dimethyl-2-oxido-1,3,2-dioxaphosphinane-4-carboxamido)propanoate]	11.44
COC(=O)CCNC(=O)[C@@H]1OP(=O)(OCOC(=O)NCCOC(=O)[C@@H](N)C(C)C)OCC1(C)C (stereo partly drawn) [2-195, 2-((((((4R)-4-((3-methoxy-3-oxopropyl)carbamoyl)-5,5-dimethyl-2-oxido-1,3,2-dioxaphosphinan-2-yl)oxy)methoxy)carbonyl)amino)ethyl L-valinate]	1.91
CC(C)OC(=O)OCO[P@@]1(=O)OCC(C)(C)[C@H](C(=O)NCCC(=O)OC(C)(C)C)O1 [compound 105, tert-butyl 3-((2S,4R)-2-(((isopropoxycarbonyl)oxy)methoxy)-5,5-dimethyl-2-oxido-1,3,2-dioxaphosphinane-4-carboxamido)propanoate]	4.72
COC(=O)CCNC(=O)[C@@H]1O[P@@](=O)(OCOC(=O)c2scnc2C(C)C)OCC1(C)C [2-187, (((2S,4R)-4-((3-methoxy-3-oxopropyl)carbamoyl)-5,5-dimethyl-2-oxido-1,3,2-dioxaphosphinan-2-yl)oxy)methyl 4-isopropylthiazole-5-carboxylate]	112.41
COC(=O)CCNC(=O)[C@@H]1O[P@@](=O)(Oc2ccc(C#N)cc2)OCC1(C)C [2-116, methyl 3-((2S,4R)-2-(1-cyanophenoxy)-5,5-dimethyl-2-oxido-1,3,2-dioxaphosphinane-4-carboxamido)propanoate]	0.95
COC(=O)CCNC(=O)[C@@H]1O[P@](=O)(OC(C)OC(=O)C(C)(C)C)OCC1(C)C (stereo partly drawn) [compound 102, 1-(((2R,4R)-4-((3-methoxy-3-oxopropyl)carbamoyl)-5,5-dimethyl-2-oxido-1,3,2-dioxaphosphinan-2-yl)oxy)ethyl pivalate]	2.5
COC(=O)CCNC(=O)[C@@H]1O[P@@](=O)(OCOC(=O)C2(C(N)=O)CC2)OCC1(C)C [2-131, (((2S,4R)-4-((3-methoxy-3-oxopropyl)carbamoyl)-5,5-dimethy)-2-oxido-1,3,2-dioxaphosphinan-2-yl)oxy)methyl 1-carbamoylcyclopropane-1-carboxylate]	1.44
